From US20190151274A1, “COMPOUND FOR USE IN THE TREATMENT OF A BLOOD VESSEL DISEASE” (Universitaet Potsdam, priority 2017, published 2019)

Test system: ALK1 mutant zebrafish
Test: Treatment of ALK1 mutant zebrafish, microscopic images of the lateral dorsal aorta
Format: in vivo
Conditions: 0.3 μM ATRA, 24-51 hours after insemination; control 0.1% DMSO; FIG. 5
Experimental: The zebrafish ALK1 mutant is in a gene that is defective in some patients that suffer from HHT (hereditary hemorrhagic telangiectasia). The ALK1 mutant phenotype is an enlarged lateral dorsal aorta (LDA).
The treatment with the different active ingredients took place, between 24-51 hours after insemination of zebrafish eggs. The treatment was performed with 0.1% DMSO (first row) and 0.3 μM ATRA (second row).

CC1=C(/C=C/C(C)=C/C=C/C(C)=C/C(=O)O)C(C)(C)CCC1 [ATRA, all-trans retinoic acid]
overgrowth of the aorta (enlarged lateral dorsal aorta) in the ALK1 mutant: suppressed
